From PMC3328449, “Inhibition of Diacylglycerol–Sensitive TRPC Channels by Synthetic and Natural Steroids” (PLoS ONE, 2012)
Where “and” joins values, the source holds several entries; their conditions need not be identical. Equal values may be shown once.

Biological target: T1, mTRPC5 (Mus musculus, UniProt Q9QX29)
T1 construct: expressed in transfected cells
T1 sequence (Q9QX29 1-975): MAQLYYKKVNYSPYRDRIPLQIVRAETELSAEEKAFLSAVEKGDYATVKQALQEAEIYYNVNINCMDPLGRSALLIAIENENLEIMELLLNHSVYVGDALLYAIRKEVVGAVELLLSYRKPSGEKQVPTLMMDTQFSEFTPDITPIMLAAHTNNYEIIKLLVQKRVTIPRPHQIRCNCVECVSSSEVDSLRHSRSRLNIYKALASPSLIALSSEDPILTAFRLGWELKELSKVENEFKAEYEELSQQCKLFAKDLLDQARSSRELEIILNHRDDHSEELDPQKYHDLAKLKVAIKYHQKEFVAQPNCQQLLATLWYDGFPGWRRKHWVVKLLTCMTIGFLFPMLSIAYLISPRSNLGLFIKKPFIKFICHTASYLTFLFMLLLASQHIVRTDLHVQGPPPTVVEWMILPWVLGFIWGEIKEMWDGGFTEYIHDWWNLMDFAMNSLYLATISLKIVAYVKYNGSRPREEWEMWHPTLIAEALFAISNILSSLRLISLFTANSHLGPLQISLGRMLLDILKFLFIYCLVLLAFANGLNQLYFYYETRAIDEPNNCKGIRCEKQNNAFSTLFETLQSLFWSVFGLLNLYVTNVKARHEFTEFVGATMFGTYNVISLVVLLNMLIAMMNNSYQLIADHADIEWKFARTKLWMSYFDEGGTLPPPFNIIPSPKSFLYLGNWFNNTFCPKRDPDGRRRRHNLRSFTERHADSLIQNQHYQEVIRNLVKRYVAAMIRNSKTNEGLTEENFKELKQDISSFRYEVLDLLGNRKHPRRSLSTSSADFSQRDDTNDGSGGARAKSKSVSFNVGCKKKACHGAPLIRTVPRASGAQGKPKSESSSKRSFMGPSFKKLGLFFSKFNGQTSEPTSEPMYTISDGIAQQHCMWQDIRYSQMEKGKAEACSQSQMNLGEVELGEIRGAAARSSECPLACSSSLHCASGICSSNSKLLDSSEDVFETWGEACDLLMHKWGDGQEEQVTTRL
Assay: Whole-cell patch clamp, AlF4- evoked TRPC5 currents
Type: cell-based
Protocol: Cells were grown at 37°C in a humidified atmosphere (5% or 7% CO2) under standard cell culture conditions. Stable human embryonic kidney (HEK) cell lines expressing recombinant mTRPC4ß (GenBank accession number AAC05178); mTRPC5 (GenBank accession number NM_009428) or hTRPC6 (GenBank accession number AF080394) under the control of a tetracycline-inducible promoter were generated using the Flp-In T-Rex (FITR) system (Invitrogen, Karlsruhe, Germany). […]
Cells grown on poly-L-lysine-coated coverslips were continuously superfused with extracellular solution and substances were applied using an ALA BPS-8 perfusion system (ALA Scientific Instruments, Westbury, USA). […] Cells were held at −70 mV, and current-voltage (I–V) relationships were routinely measured every 2 or 3 s by applying voltage ramps (180 ms) from −100 mV to +80 mV. […]
For statistical analysis, analysis of variance was performed with Origin 6.0 software (Microcal Software Inc., Northampton, USA). […] IC50 were calculated with SigmaPlot (Systat software, San Jose, USA) using the sigmoidal Hill-model: f = 100 (C^n/(IC50 ^n+C^n)); where f is the inhibition, C is the applied drug concentration and n is the Hill coefficient. […] Averaged data is expressed as means ± SEM.

- Hill slope, TRPC5 current inhibition (fit to dose-response equation): 1.43
- IC50 (whole-cell patch clamp, AlF4- infusion, TRPC5 HEK-FITR cells, read-out: IC50, TRPC5 current inhibition): > 10 µM and 13.6 µM and ~14 µM
Compound: C#C[C@]1(OC(C)=O)CC[C@H]2[C@@H]3CCC4=CC(=NO)CC[C@@H]4[C@H]3CC[C@@]21CC (mixture of isomers) [norgestimate]
